Test results reported in patent publication US20260271929A1, “FUNGICIDAL COMBINATIONS, MIXTURES AND COMPOSITIONS AND USES THEREOF” (ADAMA MAKHTESHIM LTD., priority 2023, published 2026).
Read-outs that look alike come from different tables or passages of the source. Values belong to the molecule of their own block, whether it stands above or below them.

System: Rhizoctonia solani
Assay: Microtiter plate (MTP) fungal growth inhibition assay, OD at 590 nm after 5 days; interaction by Wadley approach
Assay type: cell-based
Details: for EC50: Rhizoctonia solani
Experimental: In the […] method, synergistic activity is determined from dose response curves. With this method, the efficacy of the active ingredient (“a.i.”) is determined by comparing the degree of fungal attack on treated plants with that on untreated, similarly inoculated and incubated check plants. Each a.i. is generally tested at multiple. (e.g., 6) 25 concentrations, and dose response curves are generated. The dose response curves are used to establish the EC50 (i.e., the effective concentration of a.i. providing 50% disease control) of the individual compounds as well as of the combinations (EC50Observed) The experimentally found values of the mixture at a given weight ratio are compared with the values that would have been found were only a complementary efficacy of the components was present as follows: 5 [formula] • A and B=the single products tested • a and b=the ratio of each product in the mixture • ECA and ECB=observed effective concentration of the single products A and B at different control levels (50 or 90%) 10 The ratio EC50 (A+B)Theo/EC50(A+B)observed expresses the factor of interaction level (R) which may be interpreted in accordance with the following Table: [table] The compound of Formula I, […] and Pyridachlometyl were tested straight or in mixture on the Rhizoctonia solani pathogen. the active ingredients straight or in mixture were diluted in a suitable solvent to a set of concentrations. Two fungicide ratios were tested for each combination between the compound of Formula I and Chloroinconazide or Pyridachlometyl. One hundred microliters of sterile distilled water with or without fungicide were added to 100 μl of pathogen suspension into each well in a microtiter plate (MTP). Each bioassay was carried out with the following 8 treatment groups corresponding to 8 concentrations of the fungicide mixture. In the MTP assay, 3 replicates (wells) were carried out for each concentration of fungicide mixture. The MTPs were incubated in the dark at 19° C. for 5 days under saturated humidity in order to avoid evaporation. Then, the fungal growth in each well was estimated by measuring the Optical Density (OD) at 590 nm with a BMG plate reader (FLUOstar Omega, BMG Labtech). The OD values at 5 days were automatically corrected by comparison with those measured at day zero (inoculation day). The generated data were transferred to the MARS Data Analysis software (BMG Labtech) which allows to calculate percentage of growth inhibition induced by each concentration of fungicide tested. Finally, the EC50 of each product and mixture was determined. • (i) No bacterial nor fungal contamination at any stage of the assay must be observed. • (ii) A normal and constant mycelium growth must be observed in the control wells (without fungicide). • (iii) At the end of the evaluation the final minimum OD must reach at least a value of 0.25 Absorbance's Unit (AU).

[1] = MTP, 5 days at 19° C., OD 590 nm
[2] = Table 9, active ingredient straight

EC50 [1]: 15.399 µg/mL
EC50 observed [2]: 15.3990 µg/mL
Structure (SMILES): CC1N[C@H](C(=O)N/N=C/c2ccc(Cl)cc2)Cc2c1[nH]c1ccccc21 (stereo partly drawn) [Chloroinconazide]
percentage of growth inhibition (Dose 0.110): 14.4%
percentage of growth inhibition (Dose 0.329): 2.0%
percentage of growth inhibition (Dose 0.988): 24.1%
percentage of growth inhibition (Dose 2.96): 9.1%
percentage of growth inhibition (Dose 8.89): 19.5%
percentage of growth inhibition (Dose 26.7): 99.3%
percentage of growth inhibition (Dose 80): 100.1%

EC50 (120 h, MTP, 5 days at 19° C., OD 590 nm, read-out: EC50): > 320 µg/mL
EC50 (Table 9, active ingredient straight, read-out: EC50 observed): ≥ 320 µg/mL
Structure (SMILES): Cc1ccc(S(=O)(=O)n2cc(F)c(=N)n(C)c2=O)cc1 [Compound (I), 5-fluoro-4-imino-3-methyl-1-tosyl-3,4-dihydropyrimidin-2(1H)-one]
percentage of growth inhibition (Dose 0.020): 15.8%
percentage of growth inhibition (Dose 0.102): 23.9%
percentage of growth inhibition (Dose 0.512): 22.5%
percentage of growth inhibition (Dose 2.56): 0.7%
percentage of growth inhibition (Dose 12.8): 13.5%
percentage of growth inhibition (Dose 64): 27.7%
percentage of growth inhibition (Dose 320): 40.1%

EC50 [1]: 0.111 µg/mL
EC50 observed [2]: 0.1115 µg/mL
Structure (SMILES): Cc1nnc(Cl)c(-c2c(F)cccc2F)c1-c1ccccc1 [Pyridachlometyl]
percentage of growth inhibition (Dose 0.00781): −1.1%
percentage of growth inhibition (Dose 0.01563): 2.6%
percentage of growth inhibition (Dose 0.03125): 3.7%
percentage of growth inhibition (Dose 0.06250): 12.7%
percentage of growth inhibition (Dose 0.12500): 68.7%
percentage of growth inhibition (Dose 0.2500): 76.0%
percentage of growth inhibition (Dose 0.500): 77.2%
